Measurements taken from US9624167B2, “N-(4-hydroxy-4-methyl-cyclohexyl)-4-phenyl-benzenesulfonamides and N-(4-hydroxy-4-methyl-cyclohexyl)-4-(2-pyridyl)benzenesulfonamides and their therapeutic use” (PIMCO 2664 LIMITED, priority 2013, dated 2017).
≈ marks a conversion by molar mass, not a printed value.

Key:
[1] = Aqueous (FaSSIF) solubility; assay type: physicochemical; conditions: fasted state simulated intestinal fluid (FaSSIF); for solubility: pH 6.8, two replicates, read-out: Solubility (2); for solubility at 16 h: kinetic from dmso stock, pH 6.5, three replicates, read-out: Solubility (1)
Protocol: Solubility was measured by equilibration of the compound in fasted state simulated intestinal fluid (FaSSIF) and quantified by high-performance liquid chromatography (HPLC).
Aqueous solubility was measured by equilibration of compounds with fasted state simulated intestinal fluid (FaSSIF) and quantified spectrophotometrically.
FaSSIF was prepared as described below:
Preparation of blank FaSSIF: 0.21 g of sodium hydroxide (NaOH) pellets, 1.97 g of dihydrogen sodium phosphate (NaH2PO4.2H2O) and 3.09 g of sodium chloride (NaCl) were dissolved in 400 mL of deionised water. […]
Preparation of FaSSIF: 0.056 g of SIF Powder (containing sodium taurocholate and lecithin) (Phares AG) was dissolved in 25 mL of blank FaSSIF and stirred until the powder was completely dissolved. The solution was allowed to stand for 2 hours during which it became opalescent; it was used within 24 hours. The final solution composition was characterised as follows: • Sodium taurocholate: 3 mM • Lecithin: 0.75 mM • Osmolarity: 270±10 mOsmol • pH: 6.5
The optical density was measured at the end of the incubation period for test compounds and a reference used to determine solubility. In brief, two samples were prepared for each determination: a reference sample consisting of a stock solution of test compound in DMSO diluted in system solution (a phosphate free, low absorption buffer) and propanol; and a test sample (prepared in triplicate) consisting of 0.5 mL FaSSIF spiked with test compound at 0.2 mM. Each sample was incubated at room temperature for 16 hours with constant shaking at 250 rpm. At the end of the incubation period, 0.3 mL of each sample was filtered through a pION filter plate (PION, Woburn Mass.), diluted 1:1 with propanol and scanned using UV spectrophotometry at λmax ([…]) using a Spectra Max Plus—Version 2.1000 (Molecular Devices, Sunnyvale, Calif.), with μSOL Explorer solubility determination software (pION, Woburn, Mass.).
FaSSIF solubility was calculated using the following formula:
[formula] wherein: • “OD” is the optical density; • “Cr” is the concentration of the reference (33.4 μM); and • “molecular weight” is for the test compound (e.g., 381.44 for ABD735).

[2] = Rodent pharmacokinetics study; assay type: in vivo, Sprague-Dawley rats; conditions: rat; for half-life: male, Sprague-Dawley, plasma, elimination phase half-life; for p.o. AUC: oral 5 mg/kg in 0.5% CMC/0.1% Tween-80 (HMC-C-01-A in 2% dimethylacetamide/20% hydroxypropyl-β-cyclodextrin); for Bioavail, F: tentative oral bioavailability, F=AUC(p.o.)×Dose(i.v.)/AUC(i.v.)×Dose(p.o.); for i.v. AUC: intravenous 1 mg/kg
Protocol: Absorption and metabolic stability were studied using an in vivo pharmacokinetics assay.
Three male Sprague-Dawley rats, aged 8-12 weeks, were dosed with test compounds administered either orally or intravenously (dose level of 1 mg/kg body weight intravenous or 5 mg/kg body weight orally). Test compounds were formulated in 0.5% carboxymethylcellulose (CMC)/0.1% Tween-80 for administration via the oral route, or in 5% DMSO/10% solutol in saline for administration via the intravenous route. For compound HMC-C-01-A the oral administration was formulated in 2% dimethylacetamide/20% hydroxypropyl-β-cyclodextrin in water. Animals were given free access to food throughout the study except for fasting overnight and until 2 hours post dose on the day of dosing.
Blood samples were taken from the retro-orbital plexus at the following time points and placed in microtubes containing 20% K2EDTA solution:
Oral Dosing: predose; 0.25, 0.5, 1, 2, 4, 6, 8, and 24 hours post dose.
Intravenous Dosing: predose; 0.08, 0.25, 0.5, 1, 2, 4, 8, and 24 hours post dose.
Blood samples were centrifuged to obtain plasma, which was transferred to a separate container and frozen at −20° C.
For analysis, samples were thawed at room temperature and prepared by protein precipitation with acetonitrile spiked with internal standard (500 ng/mL glipizide) in the ratio 1:4 with plasma. The samples were then vortexed for 5 minutes and centrifuged for 10 minutes at 20,600×g at 4° C. 100 μL of the supernatant was collected for analysis. The standard samples were prepared similarly, after spiking blank rat plasma samples with 10 μL of analyte.
The pharmacokinetic parameters for the test compounds were calculated by Phoenix WinNonlin version 6.3 (Pharsight Corp, CA) using standard non-compartmental methods. Peak plasma concentrations (Cmax) and time of the peak plasma concentration (Tmax) were the observed values. The area under the plasma concentration-time curve (AUC) was determined by use of the linear trapezoidal rule up to the last measurable concentration (AUClast) and thereafter by extrapolation of the terminal elimination phase to infinity (AUCinf). The terminal elimination rate constant (kel) was determined by regression analysis of the linear terminal portion of the log plasma concentration-time curve. The elimination phase half-life (t1/2) was calculated as 0.693/kel.

J774 macrophages = assay: Resazurin Macrophage J774 Viability Assay; assay type: cell-based; conditions: Mus musculus, 12 point concentration range 10 μM to 0.5 nM, n = 4 replicates, mean of 3 independent experiments, 72 hour incubation, read-out: IC50 (2)

SMILES	solubility [1] [µg/mL]	half-life [2] [h]	p.o. AUC [2] [ng·h/mL]	Bioavail, F [2] [%]	IC50 (J774 macrophages) [nM]	solubility at 16 h [1] [µg/mL]	i.v. AUC [2] [ng·min/mL]
C[C@]1(O)CC[C@@H](NS(=O)(=O)c2ccc(-c3c(F)cc(F)cc3F)cc2)CC1 [HMC-C-03-B, 2′,4′,6′-Trifluoro-N-((1s,4s)-4-hydroxy-4-methylcyclohexyl)-[1,1′-biphenyl]-4-sulfonamide]	150 (≈ 376 µM)	8.3	157	116	200		
C[C@]1(O)CC[C@@H](NS(=O)(=O)c2ccc(-c3ccc(F)cc3F)c(F)c2)CC1 [HMC-C-04-B, 2,2′,4′-Trifluoro-N-((1s,4s)-4-hydroxy-4-methylcyclohexyl)-[1,1′-biphenyl]-4-sulfonamide]	130 (≈ 325 µM)	5.5	156	59	60		
C[C@]1(O)CC[C@H](NS(=O)(=O)c2ccc(-c3ncc(F)cc3F)c(F)c2)CC1 [HMC-N-01-A, 4-(3,5-Difluoropyridin-2-yl)-3-fluoro-N-((1r,4r)-4-hydroxy-4-methylcyclohexyl)benzenesulfonamide]		13.4	23.5	64	2660	30 (≈ 74.9 µM)	740
C[C@]1(O)CC[C@@H](NS(=O)(=O)c2ccc(-c3ncc(F)cc3F)c(F)c2)CC1 [HMC-N-01-B, 4-(3,5-Difluoropyridin-2-yl)-3-fluoro-N-((1s,4s)-4-hydroxy-4-methylcyclohexyl)benzenesulfonamide]	120 (≈ 300 µM)	9.1	141	60	140		2824
C[C@]1(O)CC[C@H](NS(=O)(=O)c2ccc(-c3ncc(F)cc3F)cc2)CC1 [HMC-N-02-A, 4-(3,5-Difluoropyridin-2-yl)-N-((1r,4r)-4-hydroxy-4-methylcyclohexyl)benzenesulfonamide]		6.3	55	43	4590	20 (≈ 52.3 µM)	
C[C@]1(O)CC[C@@H](NS(=O)(=O)c2ccc(-c3ncc(F)cc3F)cc2)CC1 [HMC-N-02-B, 4-(3,5-Difluoropyridin-2-yl)-N-((1s,4s)-4-hydroxy-4-methylcyclohexyl)benzenesulfonamide]	120 (≈ 314 µM)	6	107	66	360		1931
C[C@]1(O)CC[C@H](NS(=O)(=O)c2ccc(-c3ncc(Cl)cc3Cl)cc2)CC1 [HMC-N-03-A, 4-(3,5-Dichloropyridin-2-yl)-N-((1r,4r)-4-hydroxy-4-methylcyclohexyl)benzenesulfonamide]		3.1	16	8	620	> 80	
C[C@]1(O)CC[C@@H](NS(=O)(=O)c2ccc(-c3ncc(Cl)cc3Cl)cc2)CC1 [HMC-N-03-B, 4-(3,5-Dichloropyridin-2-yl)-N-((1s,4s)-4-hydroxy-4-methylcyclohexyl)benzenesulfonamide]	100 (≈ 241 µM)	7.4	193	84	80		
